Measurements: patent publication US20050136445A1, “Recombinant DNA vector, recombinant bio-luminescent bacterium and method for detecting bio-inhibitory substances using same” (Industrial Technology Research Institute, priority 2003, published 2005)

Test system: recombinant luminescent bacteria, pLWY-fabG (in Serratia marcescens) and pLWY-sh1A (in Serratia marcescens)
Assay: Luminosity (RLU) of recombinant bio-luminescent bacteria after mixing with test sample
Format: cell-based
Settings: 200 μl bacterial liquid + 20 μl test sample, react for 15 minutes, luminosity detected for 20 sec; expressed as percentage of purified water control (100%)
Description: The technique developed in this invention that allows speedy detection of bio-inhibitory substances in wastewater is based on the principle that such substance poses a negative effect on the luminescent ability of recombinant luminescent bacteria, pLWY-fabG (in Serratia marcescens) and pLWY-sh1A (in Serratia marcescens) as provided herein. The detailed process for detecting bio-inhibitory substances in wastewater using the foregoing recombinant bio-luminescent bacteria are described below: 1. Culture the constructed foregoing recombinant bio-luminescent bacteria for 18-24 hours (O.D. >2); 2. Dilute the bacterial liquid at 1:100 with fresh LB broth the next day; 3. Shake culture at 225 rpm under 30° C. for one hour; 4. Mix 200 μl of bacterial liquid with 20 μl of test sample; mix well and let them react for 15 minutes; and 5. Use luminometer Berthold Lumat LB9507 to detect luminosity for 20 sec and the results are shown in relative light unit (RLU).
To preclude environmental error, each batch of test samples must include purified water to be treated as a positive control with RLU set as 100% for a standard reference. Given that the RLU of negative control (LB broth) is 0, it was not measured. The test results of samples are expressed as a percentage of the positive control. In this test, the amount of bacterial liquid used was 200 μl and that of test sample was 20 μl. Therefore the concentration of test sample was diluted to 1/11 of the original liquid at the time of testing. The concentrations of samples shown in the table are the detected concentration.

| SMILES | luminosity (RLU value) of the recombinant bio-luminescent bacterium versus concentration of the bio-inhibitory substance |
| --- | --- |
| CC#N [acetonitrile] | the higher is the acetonitrile concentration, the lower is the RLU value |
| Oc1ccccc1 [phenol] | the higher is the phenol concentration, the lower is the RLU value |
| [Zn+2] [zinc ion] | the higher is the zinc ion concentration, the lower is the RLU value |
